Read-outs that look alike come from different tables or passages of the source.
Columns and labels:
SKBR3 cells = test: SKBR3 Cell Viability Assay (CellTiter Glo); assay type: cell-based; conditions: CellTiter Glo luminescence, read-out: MCL-1 CV SKBR3 EC50
Summary of the method: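 SKBR3 cells (6,000/well) in McCoy 5A + 10% FBS exposed to serially diluted compound for 72 h at 37° C., 5% CO2. Viability by CellTiter Glo luminescence; % inhibition normalized to DMSO (negative) and 10 μM puromycin (positive).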

[1] = biological target: MCL-1/Bim interaction (recombinant human MCL-1 protein, residues 171-327; biotinylated human Bim peptide, residues 51-76) (Homo sapiens (Human), UniProt Q07820); test: MCL-1/Bim Binding AlphaLISA Assay; conditions: 0.0625 nM 6xHis-Mcl-1 (171-327), 0.0625 nM biotinylated-Bim peptide
MCL-1/Bim interaction (recombinant human MCL-1 protein, residues 171-327; biotinylated human Bim peptide, residues 51-76), sequence (Q07820 171-327): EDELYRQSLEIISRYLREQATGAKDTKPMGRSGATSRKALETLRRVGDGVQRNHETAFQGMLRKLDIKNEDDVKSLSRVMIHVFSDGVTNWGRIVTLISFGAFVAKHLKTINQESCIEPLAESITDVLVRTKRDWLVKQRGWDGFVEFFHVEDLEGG
Summary of the method: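 AlphaLISA with 0.0625 nM His-tagged MCL-1 (171-327) and 0.0625 nM biotinylated Bim (51-76) in 20 mM Hepes pH 7.5, 150 mM NaCl, 0.002% Brij 35, 1 mM DTT, 0.01% BSA. Compound preincubated 1 h with MCL-1, then Bim 2 h, acceptor beads 1 h, donor beads 1 h; percent inhibition against DMSO and no-protein/no-peptide controls.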

Structure (SMILES)	EC50 (SKBR3 cells; Homo sapiens, SK-BR-3, 72 h)	IC50 [1]	EC50 (SKBR3 cells; 72 hours)
CO[C@H]1/C=C/C[C@H](C)C[S@@](=O)(NC(=O)c2cnc(C)nc2)=NC(=O)c2ccc3c(c2)N(C[C@@H]2CC[C@H]21)C[C@@]1(CCCc2cc(Cl)ccc21)CO3 [Example 461]	151 nM	0.087 nM	
CCC(=O)N[S@]1(=O)=NC(=O)c2ccc3c(c2)N(C[C@@H]2CC[C@H]2[C@@H](OC)CCCCC1)C[C@@]1(CCCc2cc(Cl)ccc21)CO3 [Example 17]		11.3 nM	10000 nM
CC[C@H]1C/C=C/[C@H](OC)[C@@H]2CC[C@H]2CN2C[C@@]3(CCCc4cc(Cl)ccc43)COc3ccc(cc32)C(=O)N=[S@](=O)(NC(=O)c2cc3n(c2)CCOC3)C1 [Example 202]	91 nM	0.082 nM	
CO[C@H]1/C=C/CCC[S@](=O)(NC(=O)[C@@H]2C[C@H]2c2ccnn2C)=NC(=O)c2ccc3c(c2)N(C[C@@H]2CC[C@H]21)C[C@@]1(CCCc2cc(Cl)ccc21)CO3 [Example 84]		0.1 nM	783 nM
CO[C@H]1/C=C/C[C@H](C)C[S@@](=O)(NC(=O)CCc2cnn(C)c2)=NC(=O)c2ccc3c(c2)N(C[C@@H]2CC[C@H]21)C[C@@]1(CCCc2cc(Cl)ccc21)CO3 [Example 142]	416 nM	0.097 nM	
COCCn1cc(C(=O)N[S@@]2(=O)=NC(=O)c3ccc4c(c3)N(C[C@@H]3CC[C@H]3[C@@H](OC)/C=C/C[C@H](C)C2)C[C@@]2(CCCc3cc(Cl)ccc32)CO4)cc1COC [Example 337]	86.4 nM	0.05 nM	
CO[C@H]1/C=C/CCCS(=O)(NC(=O)CCn2ccnn2)=NC(=O)c2ccc3c(c2)N(C[C@@H]2CC[C@H]21)C[C@@]1(CCCc2cc(Cl)ccc21)CO3 (single isomer, unassigned) [Example 54]	3810 nM	0.2 nM	
CO[C@H]1/C=C/C[C@H](C)C[S@@](=O)(NC(=O)NC2COC2)=NC(=O)c2ccc3c(c2)N(C[C@@H]2CC[C@H]21)C[C@@]1(CCCc2cc(Cl)ccc21)CO3 [Example 428]	165 nM	0.069 nM	
COC(=O)c1ccn2c1CN(C(=O)N[S@@]1(=O)=NC(=O)c3ccc4c(c3)N(C[C@@H]3CC[C@H]3[C@@H](OC)/C=C/C[C@H](C)C1)C[C@@]1(CCCc3cc(Cl)ccc31)CO4)CC2 [Example 383]	1200 nM	0.659 nM	
CO[C@H]1/C=C/C[C@H](C)C[S@@](=O)(NC(=O)C2CC3(CCOCC3)C2)=NC(=O)c2ccc3c(c2)N(C[C@@H]2CC[C@H]21)C[C@@]1(CCCc2cc(Cl)ccc21)CO3 [Example 435]	167 nM	0.114 nM	
CO[C@H]1/C=C/C[C@H](C)C[S@@](=O)(NC(=O)N[C@H]2C[C@H](O)C2)=NC(=O)c2ccc3c(c2)N(C[C@@H]2CC[C@H]21)C[C@@]1(CCCc2cc(Cl)ccc21)CO3 [Example 452]	282 nM	0.045 nM	
COc1ccc(C(=O)N[S@@]2(=O)=NC(=O)c3ccc4c(c3)N(C[C@@H]3CC[C@H]3[C@@H](OC)/C=C/C[C@H](C)C2)C[C@@]2(CCCc3cc(Cl)ccc32)CO4)cc1 [Example 269]	264 nM	0.081 nM	
CO[C@H]1/C=C/C[C@H](C)C[S@@](=O)(NC(=O)N2CCC(OC(F)F)CC2)=NC(=O)c2ccc3c(c2)N(C[C@@H]2CC[C@H]21)C[C@@]1(CCCc2cc(Cl)ccc21)CO3 [Example 330]	56.4 nM	0.03 nM	
CO[C@H]1/C=C/C[C@H](C)C[S@@](=O)(NC(=O)N[C@H]2CC2(F)F)=NC(=O)c2ccc3c(c2)N(C[C@@H]2CC[C@H]21)C[C@@]1(CCCc2cc(Cl)ccc21)CO3 [Example 161]	168 nM	0.025 nM	
CO[C@H]1/C=C/C[C@H](C)C[S@@](=O)(NC(=O)N[C@H]2C[C@@H]2C(F)F)=NC(=O)c2ccc3c(c2)N(C[C@@H]2CC[C@H]21)C[C@@]1(CCCc2cc(Cl)ccc21)CO3 [Example 311]	13.4 nM	0.024 nM	
CO[C@H]1/C=C/C[C@H](C)C[S@@](=O)(NC(=O)c2cc(CN3CCN4CCOC[C@@H]4C3)n(C)c2)=NC(=O)c2ccc3c(c2)N(C[C@@H]2CC[C@H]21)C[C@@]1(CCCc2cc(Cl)ccc21)CO3 [Example 238]	23.4 nM	0.033 nM	
COC[C@H]1C[C@@H](NC(=O)N[S@@]2(=O)=NC(=O)c3ccc4c(c3)N(C[C@@H]3CC[C@H]3[C@@H](OC)/C=C/C[C@H](C)C2)C[C@@]2(CCCc3cc(Cl)ccc32)CO4)C1 [Example 210]	43.4 nM	0.071 nM	
CO[C@H]1/C=C/C[C@H](C)C[S@@](=O)(NC(=O)NC23CC(OC)(C2)C3)=NC(=O)c2ccc3c(c2)N(C[C@@H]2CC[C@H]21)C[C@@]1(CCCc2cc(Cl)ccc21)CO3 [Example 361]	44 nM	0.055 nM	
CO[C@H]1/C=C/CCC[S@@](=O)(NC(=O)CCc2scnc2C)=NC(=O)c2ccc3c(c2)N(C[C@@H]2CC[C@H]21)C[C@@]1(CCCc2cc(Cl)ccc21)CO3 [Example 93]	4820 nM	51 nM	
CO[C@H]1/C=C/CCC[S@@](=O)(NC(=O)C[C@H](O)c2ccccc2)=NC(=O)c2ccc3c(c2)N(C[C@@H]2CC[C@H]21)C[C@@]1(CCCc2cc(Cl)ccc21)CO3 [Example 72]	262 nM	0.1 nM	
CO[C@H]1/C=C/CCC[S@@](=O)(NC(=O)OCc2ccnn2C)=NC(=O)c2ccc3c(c2)N(C[C@@H]2CC[C@H]21)C[C@@]1(CCCc2cc(Cl)ccc21)CO3 [Example 78]	4070 nM	0.8 nM	
CO[C@H]1/C=C/C[C@H](C)C[S@@](=O)(NC(=O)N2CC(C)(OC)C2)=NC(=O)c2ccc3c(c2)N(C[C@@H]2CC[C@H]21)C[C@@]1(CCCc2cc(Cl)ccc21)CO3 [Example 363]	46.5 nM	0.042 nM	
CO[C@H]1/C=C/C[C@H](C)C[S@@](=O)(NC(=O)c2cc(C)sn2)=NC(=O)c2ccc3c(c2)N(C[C@@H]2CC[C@H]21)C[C@@]1(CCCc2cc(Cl)ccc21)CO3 [Example 444]	172 nM	0.101 nM	
CO[C@H]1/C=C/C[C@H](C)C[S@@](=O)(NC(=O)c2cc(CN3CCN(C4COC4)CC3)n(C)c2)=NC(=O)c2ccc3c(c2)N(C[C@@H]2CC[C@H]21)C[C@@]1(CCCc2cc(Cl)ccc21)CO3 [Example 309]	10.5 nM	0.029 nM	
CO[C@H]1/C=C/[C@H](OC)[C@H](C)C[S@@](=O)(NC(=O)c2cc(CN3CCN4CCOC[C@@H]4C3)n(C)c2)=NC(=O)c2ccc3c(c2)N(C[C@@H]2CC[C@H]21)C[C@@]1(CCCc2cc(Cl)ccc21)CO3 [Example 399]	20 nM	0.07 nM	
CO[C@H]1/C=C/CCC[S@@](=O)(NC(=O)CCC2CC2)=NC(=O)c2ccc3c(c2)N(C[C@@H]2CC[C@H]21)C[C@@]1(CCCc2cc(Cl)ccc21)CO3 [Example 81]	612 nM	0.5 nM	
COc1nn(C)cc1C(=O)N[S@@]1(=O)=NC(=O)c2ccc3c(c2)N(C[C@@H]2CC[C@H]2[C@@H](OC)/C=C/[C@H](OC(C)=O)[C@H](C)C1)C[C@@]1(CCCc2cc(Cl)ccc21)CO3 [Example 393]	33.4 nM	0.062 nM	
CCO[C@H]1/C=C/[C@H](OC)[C@@H]2CC[C@H]2CN2C[C@@]3(CCCc4cc(Cl)ccc43)COc3ccc(cc32)C(=O)N=[S@](=O)(NC(=O)c2cn(C)nc2OC)C[C@H]1C [Example 296]	64.1 nM	0.053 nM	
CO[C@H]1/C=C/C[C@H](C)C[S@@](=O)(NC(=O)[C@H](O)Cc2ccccc2)=NC(=O)c2ccc3c(c2)N(C[C@@H]2CC[C@H]21)C[C@@]1(CCCc2cc(Cl)ccc21)CO3 [Example 122]	113 nM	0.161 nM	

From patent US10703733B2, “MCL-1 inhibitors” (Gilead Sciences, Inc., priority 2018, dated 2020)
